Source: patent EP0555938A1, “Use of phenoxyacetate derivatives for the restoration of neural function” (Albert ROLLAND S.A., priority 1992, dated 1993)

Key:
[1] = system: nerf sciatique; assay: Speed of sensory reinnervation after freezing lesion of the sciatic nerve (latency of somesthetic evoked potential); format: in vivo, rat whistar mâle; conditions: 150 mg/kg, another batch of rats (Fig. 2)
Method: La vitesse de réinnervation sensitive après lésion du nerf sciatique et dégénérescence wallerienne a été étudiée chez le rat whistar mâle de 210 g ± 10 g. Le nerf sciatique droit a été lésé par congélation au moyen d'une cryode à cataracte portée à -170°C pendant 30 secondes en 3 points d'une même circonférence, située au tiers supérieur de la cuisse, à 90 ± 5 mm de la pénétration du nerf dans la région plantaire. Le nerf fémoris interne était excisé sur plusieurs cm. La récupération sensitive a été appréciée en mesurant la latence du potentiel évoqué somesthésique recueilli au niveau de l'aire primaire contralatérale et homolatérale, au moyen d'électrodes métalliques extra-durémériennes scéllées et laissées à demeure. La réponse était évoquée en stimulant le coussinet le plus interne de la sole plantaire droite au moyen d'un choc électrique de 5 mA délivré à courant constant pendant 2 ms toutes les 620 ms. Les réponses étaient moyennées de 500 à 2.000 fois et leurs latences mesurées avec une précision de ± 0,5 ms.
La latence de la réponse positive (P1) la plus précoce et à seuil le plus bas, a été mesurée et comparée chez trois groupes d'animaux aux jours J +25, +29, +33, +38, +43. Le groupe de témoins (n=11) a reçu par gavage 6 jours sur 7, 0,5 g/kg de gomme arabique. […]

[2] = system: nerf sciatique; assay: Regeneration of the sciatic nerve after exposure to cold (plantar pain perception, Randal et Sellito apparatus); format: in vivo, rats Charles RIVER; conditions: 500 mg/kg P.U/jour
Method: L'étude est menée sur des lots de rats Charles RIVER (100-110 g), anesthésiés au Mébubarbital (30 mg/kg I.P).
Le nerf sciatique droit est isolé et on en pratique la congélation sur une longueur de 3 mm, au niveau du tiers supérieur de la cuisse. Cette congélation est réalisée par applications successives, pendant 30 secondes chacune, de petites masses métalliques adaptées sur un champ d'artère et plongées, préalablement, dans l'azote liquide.
Le traitement par les produits à étudier est pratique à partir du premier jour après l'opération (J₁), jusqu'à J₁₂.
La regénération nerveuse éventuelle est recherchée par la mesure de la perception douloureuse au niveau plantaire des deux pattes postérieures des animaux, en utilisant l'appareil de Randal et Sellito qui permet l'évaluation de la sensibilité locale par application d'un poids progressivement augmenté en fonction du temps.
Les résultats sont exprimés à partir des mesures réalisées sur chaque patte, 4 heures après le dernier traitement. La valeur de la regénération de la sensibilité, donc de la regénération nerveuse, est représentée par la différence de réponse au test de la patte au nerf lésé par rapport à la patte contralatérale intacte.
L'analyse statistique est faite sur les deux séries de valeurs par analyse de Kruskall-Wallis et test U de Mann-Whitney. […]

| SMILES | modification dans la regénération des fibres nerveuses [1] | réactivité (perception douloureuse au niveau plantaire, patte lésée vs patte contralatérale) ([2]; sixth day after operation, oral, in water) | amélioration de la réactivité (regénération de la sensibilité) ([2]; twelfth day after operation, 4 h after last treatment, oral (plate no. 3)) |
| --- | --- | --- | --- |
| CC(C)Nc1ncccn1 [isaxonine] | aucune modification sensible |  |  |
| CN(C)CCOC(=O)COc1ccc(Cl)cc1 [Méclofénoxate] |  | tendance à une meilleure réactivité | l'amélioration est significative |
